Consider four molecules from publication PMC7494652 (Bioorganic & medicinal chemistry letters, 2020).

Data set [1] can be described thus: Solubility in sodium phosphate buffer. The data set is classed as physicochemical.
A further data set concerns the target T1, human sEH (Homo sapiens, UniProt P34913).
T1 sequence (P34913 1-555): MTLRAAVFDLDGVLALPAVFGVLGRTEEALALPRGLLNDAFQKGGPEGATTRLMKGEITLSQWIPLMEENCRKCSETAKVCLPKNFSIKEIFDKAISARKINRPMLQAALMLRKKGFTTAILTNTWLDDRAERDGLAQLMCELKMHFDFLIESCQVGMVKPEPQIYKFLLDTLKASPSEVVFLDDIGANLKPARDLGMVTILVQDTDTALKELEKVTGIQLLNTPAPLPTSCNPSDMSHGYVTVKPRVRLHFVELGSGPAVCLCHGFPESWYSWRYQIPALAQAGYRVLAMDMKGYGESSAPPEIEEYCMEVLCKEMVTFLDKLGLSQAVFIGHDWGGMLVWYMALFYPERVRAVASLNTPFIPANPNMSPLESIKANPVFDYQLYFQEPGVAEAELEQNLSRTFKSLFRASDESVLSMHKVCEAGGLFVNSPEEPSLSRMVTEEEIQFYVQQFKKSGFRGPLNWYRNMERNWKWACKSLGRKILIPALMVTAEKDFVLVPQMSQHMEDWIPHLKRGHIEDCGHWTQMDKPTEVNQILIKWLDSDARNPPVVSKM
Put plainly: Inhibition of human sEH, kinetic fluorescent assay.

For data set [2] the following is noted: cited from earlier work.

Where two headings read alike, the source gives them in different places.

Molecule `CC1(C)[C@H]2CC[C@]1(C)C(NC(=O)Nc1ccccc1F)C2` (mixture of isomers) [(S)-2b] came in with a solubility in data set [1] (pH 7.4, aqueous buffer) of 225 ± 25 µM.

As for `O=C(NC1CC2C=CC1C2)N[C@H]1CC[C@H](Oc2ccc(C(=O)O)cc2)CC1` (some centres unmarked) [1a], in data set [1] (sodium phosphate buffer), the “Fold more soluble than t-AUCB” value is 2 fold and the “Solubility compared with t-TUCB” value is recorded as “significantly more soluble”.

`O=C(NCCCCCCCCNC(=O)NCc1ccco1)NCc1ccco1` [5i]: the IC50 against human sEH is 0.214 µM.

Turning to `O=C(Nc1ccc(OC(F)(F)F)cc1)N[C@H]1CC[C@H](Oc2ccc(C(=O)O)cc2)CC1` [t-TUCB], the solubility in data set [2] is 5[19] μM.

The solubility is how much of the substance goes into solution per volume. In general, IC50 refers to the point on the concentration scale where inhibition reaches its midpoint. High values mean weaker potency, low ones greater potency.
